The test system of one assay is Smad2/3 phosphorylation. Kind of assay: Phospho-Smad2/3 Inhibition Assay in C2C12 (western blot). Format: cell-based. Conditions: Mus musculus; for IC50: C2C12, TGF-b1 stimulated. The protocol:
(§1) Cell lines: Human tumor-derived pancreatic cancer cell line Panc-1 and mouse muscle myoblast C2C12 were purchased from American Type Culture Collection and grown in complete DMEM-High Glucose, supplemented with penicillin (100 U/mL), streptomycin (100 μg/mL), and 10% heat-inactivated FBS at 37° C. in a humidified incubator with 5% CO2.
Method: Cells were plated at 350000 cells/well density in a 12-well plate, allowed 3 hours to adhere to the plate, then starved in the appropriate medium in the presence of 0.5% FBS overnight. The small molecules to be tested were added to the cells in the final concentration of 10 μM in the presence of 0.3% DMSO for 3 hours incubation at 37° C. For IC50 value determination, serial dilutions of compounds were added to cells under the same conditions. Next, Panc-1 cells were stimulated with 10 ng/ml TGF-b1 for 1 hour, and C2C12 cells were stimulated with 10 ng/ml TGF-b1 for 20 minutes (recombinant human TGF-b1, R&D Systems). After stimulation cells were lysed with lysis buffer containing 1% Triton X-100, EDTA, and Halt™ Protease & Phosphatase Inhibitor Cocktail (Thermo Scientific). Protein concentration was assessed by BCA protein assay (Thermo Scientific). Phosphorylation level of Smad2/Smad3 was determined by western blot.
Western blot protocol: Equal amounts of protein (15-50 μg) were separated by SDS-PAGE and transferred to nitrocellulose membranes (Invitrogen by Thermo Fisher Scientific). The membrane was stained with Ponceau S Stain (Boston BioProducts) to verify uniform protein loading. Membranes were blocked with 10% milk and phosphorylation levels of Smad2/Smad3 were assessed by incubating overnight at 4° C. with the following antibodies: Phospho-Smad2 (Ser465/467) and Phosph-Smad3 (Ser423/425), both from Cell Signaling Technology. Then the membranes were incubated with HRP-conjugated secondary antibody (Jackson Immunoresearch, West Grove, PA). Bands were incubated in Amersham ECL Prime Western Blotting Detection Reagent (GE Healthcare) and visualized using the ChemiDoc MP imaging system (Bio-Rad).
For orientation: A western blot detects proteins with antibodies after separation by electrophoresis.

In a further assay the target is Cdc42 (Homo sapiens (Human), UniProt P60953). Kind of assay: Cdc42 GTP Binding Domain Inhibition Assay. To be noted: read-out: Cdc42: % inh. The protocol: (§2) The following method was developed as specific assay for cdc42 and Rheb proteins.
(§3) Buffer-I: • 25 mM Tris-HCl, pH 7.4 • 27 mM KCl • 137 mM NaCl • 1 mM MgCl2 • 1 mM DTT
(§4) Buffer-IL: • 50 mM Tris-HCl, pH 7.0 • 1 mM MgCl2 • 1 mM DTT
(§5) The small GTPases proteins cdc42 and Rheb were expressed as His-tagged proteins. For the assay, the cdc42 and Rheb purified small GTPases proteins were diluted in Buffer-I or Buffer-II to a final concentration of 10-30 μg/mL. 200 μL of each diluted protein was added to a nickel-coated 96-well plate and incubated overnight at […]. Then the protein solution was discarded and 200 μL of Buffer-I or Buffer-II was added to each well in the presence of 1% DMSO. Compounds to be tested were added to the protein-coated wells at final concentration of 20 μM, and incubated for 3 hours at room temperature with and without 10-30 μg/mL of Sos added to the final hour of the incubation. When performing IC50 measurements a serial dilution of all tested concentrations was added. Then Cy3-GTP or Cy5-GTP was added to each well to a final concentration of 100 nM. The labeled GTP was incubated for 45 minutes at room temperature. Following GTP incubation, wells were washed 3× in Buffer-I or Buffer-II and 200 μL of Buffer-I or Buffer-II was added to each well. Following washes, the amount of bound labeled-GTP was measured using a SpectraMax M3 (Molecular Devices).

The target in the next assay is Rheb (Homo sapiens (Human), UniProt Q15382). Kind of assay: Rheb GTP Binding Domain Inhibition Assay. Conditions: read-out: Rheb: % inh. As for the experimental part: as §2, §3, §4, §5
The next assay concerns JNK. Kind of assay: JNK Activation Assay in C2C12 (western blot). To be noted: at 10 μM. It is filed as cell-based, mouse. More on the design: key: Y = yes; N = No. The protocol: as §1
Method: Cells were plated at 350000 cells/well density in a 12-well plate, allowed 3 hours to adhere to the plate, then starved in the appropriate medium in the presence of 0.5% FBS overnight. The small molecules to be tested were added to the cells in the final concentration of 10 μM in the presence of 0.3% DMSO for 3 hours incubation at 37° C. For IC50 value determination, serial dilutions of compounds were added to cells under the same conditions. […] Protein concentration was assessed by BCA protein assay (Thermo Scientific). Phosphorylation level of JNK was determined by western blot.
Western blot protocol: Equal amounts of protein (15-50 μg) were separated by SDS-PAGE and transferred to nitrocellulose membranes (Invitrogen by Thermo Fisher Scientific). […] Membranes were blocked with 10% milk and phosphorylation levels of Smad2, Smad3, INK and p38 were assessed by incubating overnight at 4° C. with the following antibody: Phospho-SAPK/JNK (Thr183/Tyr185), from Cell Signaling Technology. […]

Sequence of Rheb (Q15382 whole entry, species assumed, the tested form may be a part): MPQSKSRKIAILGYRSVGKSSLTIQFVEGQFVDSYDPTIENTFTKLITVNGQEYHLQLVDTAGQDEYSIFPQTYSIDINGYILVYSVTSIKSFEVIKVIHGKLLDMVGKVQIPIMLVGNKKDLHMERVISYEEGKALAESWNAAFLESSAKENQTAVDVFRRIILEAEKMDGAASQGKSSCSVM
Sequence of Cdc42 (P60953 whole entry, species assumed, the tested form may be a part): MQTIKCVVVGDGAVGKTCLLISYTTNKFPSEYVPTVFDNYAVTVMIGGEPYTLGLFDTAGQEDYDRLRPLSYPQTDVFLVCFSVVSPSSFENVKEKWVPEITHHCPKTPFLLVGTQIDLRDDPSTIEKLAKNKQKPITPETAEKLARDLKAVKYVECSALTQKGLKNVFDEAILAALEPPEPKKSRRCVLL

As to `COc1cc(Nc2nc(-c3nccn3C)nc3sc(-c4ccn(C(C)C)n4)c(C)c23)ncn1` [Compound 19, 6-(1-Isopropyl-1H-pyrazol-3-yl)-N-(6-methoxypyrimidin-4-yl)-5-methyl-2-(1-methyl-1H-imidazol-2-yl)thieno[2,3-d]pyrimidin-4-amine], the IC50 (commonly the concentration that inhibits the measured activity by half) with Smad2/3 phosphorylation was greater than 10 µM.

For the compound `COc1nccc(-c2sc3nc(-c4nccn4C)nc(N[C@H]4C[C@H](OC)C4)c3c2-c2ccccc2)c1F` [Compound 45, 6-(3-Fluoro-2-methoxypyridin-4-yl)-N-((1r,3r)-3-methoxycyclobutyl)-2-(1-methyl-1H-imidazol-2-yl)-5-phenylthieno[2,3-d]pyrimidin-4-amine], the inhibition at 20 µM at Cdc42 fell in the range of 46 to 75%; on Rheb it was 76 to 100%.

`COCCNc1nc(-c2nccn2C)nc2sc(-c3cccc(OC)c3Cl)c(-c3ccccc3)c12` [Compound 9, 6-(2-Chloro-3-methoxyphenyl)-N-(2-methoxyethyl)-2-(1-methyl-1H-imidazol-2-yl)-5-phenylthieno[2,3-d]pyrimidin-4-amine]: in the assay on Smad2/3 phosphorylation (10 μM, 3 hours, C2C12 stimulated with 10 ng/ml TGF-b1 for 20 minutes, read-out: % inh of Smad2/3 phosphorylation in C2C12), the inhibition at 10 µM was in the range of 76 to 100%. The compound also yielded an IC50 in the assay on Smad2/3 phosphorylation of 1 to 4.99 µM. Further, the “Activation of JNK in C2C12” value with JNK was “Y”.

As to `COc1cc(-c2sc3nc(-c4nccn4C)nc(N[C@@H]4CC[C@H](OC)C4)c3c2-c2ccccc2)ccn1` (racemic) [Compound 44, rac-N-((1R,3S)-3-Methoxycyclopentyl)-6-(2-methoxypyridin-4-yl)-2-(1-methyl-1H-imidazol-2-yl)-5-phenylthieno[2,3-d]pyrimidin-4-amine], the figures for the inhibition at 20 µM on Cdc42 and on Rheb were 1 to 25% and 26 to 45%, respectively.

Take `COc1cccc(-c2sc3nc(-c4nccn4C)nc(N[C@H]4C[C@H](OC)C4)c3c2-c2ccccc2)c1F` [Compound 40, 6-(2-Fluoro-3-methoxyphenyl)-N-((1r,3r)-3-methoxycyclobutyl)-2-(1-methyl-1H-imidazol-2-yl)-5-phenylthieno[2,3-d]pyrimidin-4-amine]: the inhibition at 20 µM is 26 to 45% on Cdc42 and 76 to 100% on Rheb.

In the case of `COCCNc1nc(-c2cn(C)cn2)nc2sc(-c3cccc(OC)c3Cl)c(-c3ccc(OC)cc3)c12` [Compound 8, 6-(2-Chloro-3-methoxyphenyl)-N-(2-methoxyethyl)-5-(4-methoxyphenyl)-2-(1-methyl-1H-imidazol-4-yl)thieno[2,3-d]pyrimidin-4-amine], in the assay on Smad2/3 phosphorylation, the IC50 fell in the range of 1 to 4.99 µM. Moreover, the “Activation of JNK in C2C12” value in the assay with JNK is reported as “Y”.

Regarding `COc1cccc(Nc2nc(-c3nccn3C)nc3sc(-c4ccn(C(C)C)n4)c(C)c23)c1` [Compound 17, 6-(1-Isopropyl-1H-pyrazol-3-yl)-N-(3-methoxyphenyl)-5-methyl-2-(1-methyl-1H-imidazol-2-yl)thieno[2,3-d]pyrimidin-4-amine], in the assay on Smad2/3 phosphorylation, the IC50 was in the range of 5 to 10 µM.

For the compound `COc1cc(-c2sc3nc(-c4nccn4C)nc(N[C@H]4C[C@H](OC)C4)c3c2-c2ccccc2)ccn1` [Compound 46, N-((1r,3r)-3-Methoxycyclobutyl)-6-(2-methoxypyridin-4-yl)-2-(1-methyl-1H-imidazol-2-yl)-5-phenylthieno[2,3-d]pyrimidin-4-amine], the results for the inhibition at 20 µM at Cdc42 and on Rheb were 46 to 75% and 76 to 100%, respectively.

For `COc1cc(-c2sc3nc(-c4nccn4C)nc(N[C@@H]4CC[C@@H](OC)C4)c3c2-c2ccccc2)ccn1` (racemic) [Compound 47, N-((1R,3R)-3-Methoxycyclopentyl)-6-(2-methoxypyridin-4-yl)-2-(1-methyl-1H-imidazol-2-yl)-5-phenylthieno[2,3-d]pyrimidin-4-amine], the inhibition at 20 µM on Cdc42 lay in the range of 46 to 75%; on Rheb, 76 to 100%.

The compound `COc1cccc(Nc2nc(-c3nccn3C)nc3sc(-c4ccn(C(C)C)n4)c(C)c23)n1` [Compound 18, 6-(1-Isopropyl-1H-pyrazol-3-yl)-N-(6-methoxypyridin-2-yl)-5-methyl-2-(1-methyl-1H-imidazol-2-yl)thieno[2,3-d]pyrimidin-4-amine] returned an IC50 in the assay with Smad2/3 phosphorylation of 5 to 10 µM.

Values taken from patent US20240124483A1, “Methods for the Treatment of Fibrotic Disease” (SHY Therapeutics, LLC, priority 2021, published 2024).
